Experiments:
Type in all cases: functional
[1] = system: Rattus norvegicus; assay: Antiallergic activity in anti-egg albumin homocytotropic antibody-sensitized Sprague-Dawley rat assessed as inhibition of passive cutaneous anaphylaxis reaction at 50 mg/kg, po administered 60 mins prior to antigen egg albumin challenge
[2] = system: Rattus norvegicus; assay: Antiallergic activity in anti-egg albumin homocytotropic antibody-sensitized Sprague-Dawley rat assessed as inhibition of passive cutaneous anaphylaxis reaction at 50 mg/kg, po administered 20 mins prior to antigen egg albumin challenge
[3] = system: Rattus norvegicus; assay: Antiallergic activity in anti-egg albumin homocytotropic antibody-sensitized Sprague-Dawley rat assessed as inhibition of passive cutaneous anaphylaxis reaction at 50 mg/kg, po administered 120 mins prior to antigen egg albumin challenge
[4] = system: Rattus norvegicus; assay: Antiallergic activity in anti-egg albumin homocytotropic antibody-sensitized Sprague-Dawley rat assessed as inhibition of passive cutaneous anaphylaxis reaction at 50 mg/kg, po administered 5 mins prior to antigen egg albumin challenge
[5] = system: Rattus norvegicus; assay: Antiallergic activity in anti-egg albumin homocytotropic antibody-sensitized Sprague-Dawley rat assessed as inhibition of passive cutaneous anaphylaxis reaction at 0.1 mg/kg, iv administered at the time of antigen egg albumin challenge
[6] = system: Rattus norvegicus; assay: Antiallergic activity in anti-egg albumin homocytotropic antibody-sensitized Sprague-Dawley rat assessed as inhibition of passive cutaneous anaphylaxis reaction at 1 mg/kg, iv administered at the time of antigen egg albumin challenge
[7] = system: Rattus norvegicus; assay: Antiallergic activity in anti-egg albumin homocytotropic antibody-sensitized Sprague-Dawley rat assessed as inhibition of passive cutaneous anaphylaxis reaction at 0.01 mg/kg, iv administered at the time of antigen egg albumin challenge

Structure (SMILES)	inhibition in vivo at 50 mg/kg [1]	inhibition in vivo at 50 mg/kg [2]	inhibition in vivo at 50 mg/kg [3]	inhibition in vivo at 50 mg/kg [4]	inhibition in vivo at 0.1 mg/kg [5]	inhibition in vivo at 1 mg/kg [6]	inhibition in vivo at 0.01 mg/kg [7]
CCOC(=O)C(=O)Nc1cccc(NC(=O)C(=O)OCC)c1F	0%						
CCOC(=O)C(=O)Nc1cccc(NC(=O)C(=O)OCC)c1C(=O)OC	15%	27%	0%				
CCOC(=O)C(=O)Nc1cccc(NC(=O)C(=O)OCC)c1C		53%		28%			
CCOC(=O)C(=O)Nc1cccc(NC(=O)C(=O)OCC)c1OC	22%	11%		72%			
CCOC(=O)C(=O)Nc1ccc(C)c(NC(=O)C(=O)OCC)c1	12%	38%		17%			
CCCCc1ccc(NC(=O)C(=O)OCC)cc1NC(=O)C(=O)OCC	5%	0%	0%	0%			
CCOC(=O)C(=O)Nc1ccc(OC)c(NC(=O)C(=O)OCC)c1	11%	70%	45%	50%			
CCOC(=O)C(=O)Nc1ccc(F)c(NC(=O)C(=O)OCC)c1	18%	64%		74%			
CCOC(=O)C(=O)Nc1cc(NC(=O)C(=O)OCC)cc(OC)c1	0%	4%	29%				
CCOC(=O)C(=O)Nc1cc(NC(=O)C(=O)OCC)cc(C(=O)O)c1	0%	0%	20%	14%			
CCOC(=O)C(=O)Nc1cc(NC(=O)C(=O)OCC)cc([N+](=O)[O-])c1	6%	0%		0%			
CCOC(=O)C(=O)Nc1cc(NC(=O)C(=O)OCC)cc(NC(=O)C(=O)OCC)c1	5%	0%	0%				
CCOC(=O)C(=O)Nc1cc(NC(C)=O)cc(NC(=O)C(=O)OCC)c1	0%	1%	24%	6%			
CCOC(=O)C(=O)Nc1cc(C)cc(NC(=O)C(=O)OCC)c1Cl	0%	26%	3%				
CCOC(=O)C(=O)Nc1cc(C(=O)O)cc(NC(=O)C(=O)OCC)c1Cl	15%	41%	9%	15%			
CCOC(=O)C(=O)Nc1cc(C(=O)OC)cc(NC(=O)C(=O)OCC)c1Cl	0%	7%	0%				
CCOC(=O)C(=O)Nc1cc(C(N)=O)cc(NC(=O)C(=O)OCC)c1Cl		49%		85%			
CCOC(=O)C(=O)Nc1cc(C(C)=O)cc(NC(=O)C(=O)OCC)c1Cl	37%	14%	31%				
CCOC(=O)C(=O)Nc1cc(C(F)(F)F)cc(NC(=O)C(=O)OCC)c1Cl	4%	10%		10%			
CCOC(=O)C(=O)Nc1cc(S(C)(=O)=O)cc(NC(=O)C(=O)OCC)c1Cl	0%	0%		0%			
CCOC(=O)C(=O)Nc1cc(-c2ccccc2)cc(NC(=O)C(=O)OCC)c1Cl		25%		25%			
CCOC(=O)C(=O)Nc1c([N+](=O)[O-])cc([N+](=O)[O-])c(NC(=O)C(=O)OCC)c1Cl	0%	25%					
CCOC(=O)C(=O)Nc1cc(C(=O)O)cc(NC(=O)C(=O)OCC)c1C	0%	0%	0%	0%			

Structure (SMILES)	inhibition in vivo at 50 mg/kg [1]	inhibition in vivo at 50 mg/kg [2]	inhibition in vivo at 50 mg/kg [3]	inhibition in vivo at 50 mg/kg [4]	inhibition in vivo at 0.1 mg/kg [5]	inhibition in vivo at 1 mg/kg [6]	inhibition in vivo at 0.01 mg/kg [7]
CCOC(=O)C(=O)Nc1cc(C(F)(F)F)cc(NC(=O)C(=O)OCC)c1C#N	0%	25%		50%			
CCOC(=O)C(=O)Nc1cc(C(=O)OC)c(Cl)c(NC(=O)C(=O)OCC)c1Cl	0%	0%	0%				
CCOC(=O)C(=O)Nc1cc(NC(=O)C(=O)OCC)c(Cl)cc1Cl	25%	50%					
CCOC(=O)C(=O)Nc1cc(NC(=O)C(=O)OCC)c([N+](=O)[O-])cc1[N+](=O)[O-]	9%	17%					
CCOC(=O)C(=O)Nc1cc(C#N)c(Cl)c(NC(=O)C(=O)OCC)c1	0%	20%		100%			
CCOC(=O)C(=O)Nc1cc(NC(=O)C(=O)OCC)c(Cl)c(-c2ccccc2)c1	51%	10%		72%			
O=C(O)C(=O)Nc1cccc(NC(=O)C(=O)O)c1					73%	82%	0%
O=C(O)C(=O)Nc1cccc(NC(=O)C(=O)O)c1Cl					32%	75%	
COc1ccc(NC(=O)C(=O)O)cc1NC(=O)C(=O)O					0%	100%	
N#Cc1ccc(NC(=O)C(=O)O)cc1NC(=O)C(=O)O					8%	87%	
O=C(O)C(=O)Nc1ccc(F)c(NC(=O)C(=O)O)c1					41%	100%	
NC(=O)c1cc(NC(=O)C(=O)O)cc(NC(=O)C(=O)O)c1					17%	91%	
N#Cc1cc(NC(=O)C(=O)O)cc(NC(=O)C(=O)O)c1					90%		57%
CC(=O)Nc1cc(NC(=O)C(=O)O)cc(NC(=O)C(=O)O)c1					11%	47%	0%
NC(=O)c1cc(NC(=O)C(=O)O)c(Cl)c(NC(=O)C(=O)O)c1					28%	90%	0%
CC(=O)c1cc(NC(=O)C(=O)O)c(Cl)c(NC(=O)C(=O)O)c1					22%	88%	0%
O=C(O)C(=O)Nc1cc(-c2ccccc2)cc(NC(=O)C(=O)O)c1Cl					87%	94%	44%
O=C(O)C(=O)Nc1cc(NC(=O)C(=O)O)c(Cl)cc1Cl					25%	81%	0%
O=C(O)C(=O)Nc1cc(CS(=O)O)cc(NC(=O)C(=O)O)c1Cl					10%	85%	
O=C(O)C(=O)Nc1ccc(NC(=O)C(=O)O)cc1						18%	
N#Cc1cc(NC(=O)C(=O)O)ccc1NC(=O)C(=O)O						45%	
O=C(O)C(=O)Nc1cc(Cl)c(NC(=O)C(=O)O)cc1Cl						73%	

— ChEMBL document CHEMBL3244076, “N,N'-(Phenylene)dioxamic acids and their esters as antiallergy agents” (1978)
